Measurements from patent US10426815B2, “Prevention and treatment of itch with an MRGPR antagonist” (THE GENERAL HOSPITAL CORPORATION, priority 2015, dated 2019).
“Also recorded” adds a separate entry of the source.

What was measured:
Mrgprs = test: Calcium imaging of transfected HeLa cells, statements on Mrgprs not named singly; assay type: cell-based; settings: for inhibition of activation of Mrgprs by SP: FIG. 6a: cells pretreated with inhibitor 10 minutes
Description: They were then mixed and incubated at RT for 20 minutes prior to being added to HeLa cells. HeLa cells were grown to confluence, trypsinized and 1×10^6 cells were pelleted in a 15 ml tube by centrifugation at 1000 rpm for 5 minutes. The DMEM-LIPOFECTAMINE 2000-DNA mixture (1 ml) was then added to the cell pellet, suspended and incubated at RT for 5 minutes. 2 ml of complete DMEM with 10% FBS without antibiotics were added to the tube, mixed by inverting the tube, plated into a 96-well glass bottom plate at 50,000 cells/well, and placed in a 37° C. CO2 incubator for 3 hours. HeLa cells transfected with salmon sperm DNA were plated as a control. The medium was changed after 3 hours and left in the incubator. 24 hours after transfection, the medium in the wells was removed and 100 μl of complete DMEM containing 2 μM of FURA-2 were added to each well and left at room temperature in the dark for 1 hr. Following loading with FURA-2, the medium was removed, washed with PBS and replaced with 90 μl of HEPES-buffered saline (20 mM HEPES, 115 mM NaCl, 5.4 mM KCl, 2 mM CaCl2, 0.8 mM MgCl2, 13.8 mM glucose, pH 7.4). Calcium imaging was performed immediately after loading cells with Fura-2, using a ZEISS Axiovert 200M microscope platform equipped with a flipping filter wheel for ratiometric imaging. Axiovision software, version 4.6 was used for calcium image analysis of the cells excited at 340 nm and 380 nm. Agonists were added at 15 seconds after the start of the excitation procedure. […] The software later analyzed all images taken during each excitation period. Ratiometric changes were measured in 10-20 cells in each individual experiment. An average of the fluorescence of the cells in each image was calculated and plotted against time in seconds.

MrgA1 (mouse MrgprA1) = molecular target: T1, MrgA1 (mouse MrgprA1) (Mus musculus, UniProt Q91WW5); test: Calcium imaging of cells transfected with the GPCR (Table 1); assay type: cell-based; settings: for inhibition of SP-induced activation of mouse MrgprA1: FIG. 6a: SP 5 μM, inhibitors 10 μM, FK888 10 μM; for activation of mouse MrgprA1 by the substance (in words): NPFF 50 μM, SP at nanomolar concentrations
T1 construct: host or cells: HeLa cells
T1 sequence (Q91WW5 1-304): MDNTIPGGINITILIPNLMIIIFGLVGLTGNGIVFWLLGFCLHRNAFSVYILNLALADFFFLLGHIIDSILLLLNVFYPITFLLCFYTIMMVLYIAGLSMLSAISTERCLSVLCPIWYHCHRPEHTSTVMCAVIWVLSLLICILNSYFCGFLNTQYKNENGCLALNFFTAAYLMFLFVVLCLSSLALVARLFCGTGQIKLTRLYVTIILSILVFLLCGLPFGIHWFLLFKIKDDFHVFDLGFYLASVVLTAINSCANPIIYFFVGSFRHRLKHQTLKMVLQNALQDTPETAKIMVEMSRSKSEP
Description: human MRGPRX2 was isolated by PCR from human genomic DNA using the forward and reverse primers, […] (SEQ. ID. NO: 3) and […] (SEQ. ID. NO: 4), and cloned into pcDNA3.1(−). The mouse MrgprA1 cDNA expression clone was purchased from ORIGENE Technologies. The mouse MrgprB2 coding sequences were PCR-amplified from mouse genomic DNA using the primer pair, […] (SEQ. ID. NO: 5) and […] (SEQ. ID. NO: 6), and cloned into pcDNA3.1 (−).
10 μg of expression vector (human MRGPRX2, mouse MrgprA1 or NK1) and 10 μl of LIPOFECTAMINE 2000 transfection reagent were diluted into 0.5 ml of DMEM and separately left at room temperature (RT) for 5 min. They were then mixed and incubated at RT for 20 minutes prior to being added to HeLa cells. HeLa cells were grown to confluence, trypsinized and 1×10^6 cells were pelleted in a 15 ml tube by centrifugation at 1000 rpm for 5 minutes. The DMEM-LIPOFECTAMINE 2000-DNA mixture (1 ml) was then added to the cell pellet, suspended and incubated at RT for 5 minutes. 2 ml of complete DMEM with 10% FBS without antibiotics were added to the tube, mixed by inverting the tube, plated into a 96-well glass bottom plate at 50,000 cells/well, and placed in a 37° C. CO2 incubator for 3 hours. HeLa cells transfected with salmon sperm DNA were plated as a control. The medium was changed after 3 hours and left in the incubator. 24 hours after transfection, the medium in the wells was removed and 100 μl of complete DMEM containing 2 μM of FURA-2 were added to each well and left at room temperature in the dark for 1 hr. Following loading with FURA-2, the medium was removed, washed with PBS and replaced with 90 μl of HEPES-buffered saline (20 mM HEPES, 115 mM NaCl, 5.4 mM KCl, 2 mM CaCl2, 0.8 mM MgCl2, 13.8 mM glucose, pH 7.4).
Calcium imaging was performed immediately after loading cells with Fura-2, using a ZEISS Axiovert 200M microscope platform equipped with a flipping filter wheel for ratiometric imaging. Axiovision software, version 4.6 was used for calcium image analysis of the cells excited at 340 nm and 380 nm. Agonists were added at 15 seconds after the start of the excitation procedure. Antagonists were added five minutes before imaging with the agonists. Images were taken every 5 seconds, including at zero time, during a 90 second period or longer if required. The software later analyzed all images taken during each excitation period. Ratiometric changes were measured in 10-20 cells in each individual experiment. An average of the fluorescence of the cells in each image was calculated and plotted against time in seconds.
HeLa cells transfected with human MRGPRX2, mouse MrgprA1 and NK1 cDNAs were subjected to ratiometric imaging as described above with SP at concentrations from 0.1 nM-50 μM. Each of the concentration dependent readings was performed in triplicate. Maximum intensities at each of the dilutions were calculated and plotted against concentration using GraphPad Prism software. Error bars represent SEM.
The top row lists ligands that have been tested versus the various receptors, both in the absence and presence of QWF.

[1] = tested on: mice (itch, scratching bouts); test: Mouse cheek model, scratching bouts; assay type: in vivo; settings: for effect on SP-provoked itch (scratching bouts): C57BL/6 (WT) mice, co-injected with SP intradermally into the cheek; for effect on SP-provoked itch (scratching bouts) / provocation of itch (scratching bouts) by the injected substance, WT mice: 10 μl; for provocation of itch (scratching bouts) by the injected substance, WT mice: intradermal injection into the cheek
Description: The mouse cheek model was used to evaluate scratching behavior in Mrgpr cluster Δ−/− and NK1−/− mice. Mice used for behavioral studies were 2 to 3 months old, 20-30 g. Mice were habituated for 30 minutes/day for 3 days prior and for 15 minutes on the day of the study. 10 μl of each compound were delivered by a 31G needle to the cheek. The mice were not shaved prior to injections to avoid irritation. All experiments were performed at consistent times during the day (9:00 am to 2:00 pm) and under the same conditions and in groups of at least 7 mice. The mice were videotaped in a soundproof environment minimize distraction. Recordings were scored for the number of scratching bouts that occur over 1 minute intervals during 25 minute observation periods and the investigator was not aware of the group allocation during scoring the study and behavioral analysis. A scratching bout was initiated by lifting of the hind paw to the area of injection, and ended by returning of the hind paw to the floor or to the mouth. […]
For behavioral studies, average numbers of scratching bouts were compared across groups using one-way ANOVA. Pair-wise comparisons were performed using student t test after correcting p values for multiple comparisons using the Bonferroni procedure. For DRG studies and mast cell degranulation studies, unpaired student t-test was used. Differences were considered to be statistically significant for P<0.05. Data analysis was performed using PRISM 6.

[2] = C57BL/6 mice, co-injected intradermally into the cheek, 10 μL, 500 μM of each substance

| inhibition of SP-induced activation of mouse MrgprA1 (MrgA1 (mouse MrgprA1)) | Compound | inhibition of activation of Mrgprs by SP (Mrgprs) | effect on SP-provoked itch (scratching bouts) ([1]; 500 μM of each substance) | activation of mouse MrgprA1 by the substance (in words) (MrgA1 (mouse MrgprA1)) | provocation of itch (scratching bouts) by the injected substance, WT mice [1] | further results |
| --- | --- | --- | --- | --- | --- | --- |
| did not impact | FC(F)(F)c1cc(CO[C@H]2CCCN[C@H]2c2ccccc2)cc(C(F)(F)F)c1 [L-733060] | did not impact | only minimally effective; also recorded: not effective |  |  | inhibition of activation of Mrgprs by SP (Mrgprs; listed as L733060): do not inhibit; inhibition of SP-induced activation of mouse MrgprA1 (MrgA1 (mouse MrgprA1); listed as L733060): not; effect on SP-provoked itch (scratching bouts) ([1]; 500 μM of each substance, listed as L733060): does not significantly decrease and not and lack of significant blockade and does not |
|  | SLIGRL: tethered hexapeptide ligand of mouse PAR2 (SEQ ID NO: 7) |  |  | activates | provoke itch |  |
|  | SP: inflammatory undecapeptide neuropeptide of the tachykinin family, synthesized by GenScript |  |  | activates; also recorded: specifically activated | induced itch; also recorded: provoked itch | SP-provoked itch in NK1 knockout mice ([1]; cheek, intradermal, FIG. 5a: 10 μL SP 1 mM, compared to WT): induced itch; also recorded: provoked itch; also recorded: not decreased; SP-provoked itch in Mrgpr cluster knockout mice ([1]; cheek, intradermal, FIG. 5a: 10 μL SP 1 mM, compared to WT, listed as Substance P): does not provoke itch; provocation of itch (scratching bouts) by the injected substance, WT mice ([1]; listed as Substance P): provokes itch |
| did not impact and not | C[C@@H](O[C@H]1OCCN(Cc2n[nH]c(=O)[nH]2)[C@H]1c1ccc(F)cc1)c1cc(C(F)(F)F)cc(C(F)(F)F)c1 [aprepitant] | did not impact; also recorded: do not inhibit |  |  |  |  |

| Compound | inhibition of SP-induced activation of mouse MrgprA1 (MrgA1 (mouse MrgprA1)) | inhibition of activation of Mrgprs by SP (Mrgprs) | effect on SP-provoked itch (scratching bouts) ([1]; 500 μM of each substance) | activation of mouse MrgprA1 by the substance (in words) (MrgA1 (mouse MrgprA1)) | provocation of itch (scratching bouts) by the injected substance, WT mice [1] | further results |
| --- | --- | --- | --- | --- | --- | --- |
| Boc-Gln-D-Trp(Formyl)-Phe benzyl ester trifluoroacetate [QWF] | excellent inhibitor; also recorded: potent antagonist; also recorded: inhibits; also recorded: blocks | blocks | significantly decreased; also recorded: decreased SP-induced itch to baseline; also recorded: decreased SP-provoked itch to baseline; also recorded: reduced to baseline |  |  | inhibition of activation of Mrgprs by compound 48/80 (Mrgprs; FIG. 7b: compound 48/80 1 μM, QWF 1 μM): antagonizes; also recorded: inhibits; inhibition of mMrgprA1 activation by compound 48/80 (MrgA1 (mouse MrgprA1)): inhibits; effect on SLIGRL-provoked itch (scratching bouts) [1, 2]: blocks; also recorded: reduced to baseline; also recorded: significantly decreased; effect on compound 48/80-provoked itch (scratching bouts) [1, 2]: blocks compound 48/80-induced itch to baseline; also recorded: blocks compound 48/80-provoked itch to baseline; also recorded: reduced to baseline; also recorded: significantly decreased |
